Data reported in PubChem BioAssay (NCI).
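Step 1: Grow cells in 96-well plates. Step 2: Expose to compound for 48 hours at 5 concentrations. Step 3: Interpolate endpoints linearly; if unreached, use highest concentration. The concentration for 50% growth inhibition is given as GI50. TGI denotes the concentration required for complete inhibition of growth.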

Key:
Test in all cases: inhibition of tumour cell growth, NCI panel, 48 h
NCI-H226 lung = test system: NCI-H226 lung
MDA-MB-231 breast = test system: MDA-MB-231 breast
UACC-62 melanoma = test system: UACC-62 melanoma
CCRF-CEM leukemia = test system: CCRF-CEM leukemia
CAKI-1 renal = test system: CAKI-1 renal
IGROV1 ovarian = test system: IGROV1 ovarian
HOP-62 NSCLC = test system: HOP-62 NSCLC
UO-31 renal = test system: UO-31 renal
NCI-H23 lung = test system: NCI-H23 lung
SF-539 CNS = test system: SF-539 CNS
MCF7 breast = test system: MCF7 breast
OVCAR-5 ovarian = test system: OVCAR-5 ovarian
HS 578T breast = test system: HS 578T breast
SK-MEL-28 melanoma = test system: SK-MEL-28 melanoma
SN12C renal = test system: SN12C renal
A549 NSCLC = test system: A549 NSCLC
SF-268 CNS = test system: SF-268 CNS
SNB-75 CNS = test system: SNB-75 CNS
A498 renal = test system: A498 renal
SR leukemia = test system: SR leukemia
MOLT-4 leukemia = test system: MOLT-4 leukemia
SK-MEL-5 melanoma = test system: SK-MEL-5 melanoma
HL-60(TB) leukemia = test system: HL-60(TB) leukemia
HCT-15 colon = test system: HCT-15 colon
HCC-2998 colon = test system: HCC-2998 colon
PC-3 prostate = test system: PC-3 prostate
TK-10 renal = test system: TK-10 renal
OVCAR-4 ovarian = test system: OVCAR-4 ovarian
LOX IMVI melanoma = test system: LOX IMVI melanoma
K-562 leukemia = test system: K-562 leukemia
EKVX NSCLC = test system: EKVX NSCLC
KM12 colon = test system: KM12 colon
HOP-92 NSCLC = test system: HOP-92 NSCLC
RXF 393 renal = test system: RXF 393 renal
NCI-H460 lung = test system: NCI-H460 lung
SK-OV-3 ovarian = test system: SK-OV-3 ovarian
ACHN renal = test system: ACHN renal
SF-295 CNS = test system: SF-295 CNS
MDA-MB-468 breast = test system: MDA-MB-468 breast
SNB-19 CNS = test system: SNB-19 CNS

Structure (SMILES): CSc1ccc(C(=O)Nc2ccc3nnn(/C(C#N)=C/c4ccccn4)c3c2)cc1
- GI50 (NCI-H226 lung): 3.76 µM
- TGI (NCI-H226 lung): 26.9 µM
- GI50 (MDA-MB-231 breast): 1.76 µM
- TGI (MDA-MB-231 breast): 3.23 µM
- GI50 (UACC-62 melanoma): 1.68 µM
- TGI (UACC-62 melanoma): 3.35 µM
- GI50 (CCRF-CEM leukemia): 2.1 µM
- TGI (CCRF-CEM leukemia): > 100 µM
- GI50 (CAKI-1 renal): 1.33 µM
- TGI (CAKI-1 renal): 2.65 µM
- GI50 (IGROV1 ovarian): 1.91 µM
- TGI (IGROV1 ovarian): 3.8 µM
- GI50 (HOP-62 NSCLC): 3.11 µM
- TGI (HOP-62 NSCLC): 12.6 µM
- GI50 (UO-31 renal): 1.37 µM
- TGI (UO-31 renal): 2.65 µM
- GI50 (NCI-H23 lung): 1.78 µM
- TGI (NCI-H23 lung): 3.5 µM
- GI50 (SF-539 CNS): 1.66 µM
- TGI (SF-539 CNS): 3.05 µM
- GI50 (MCF7 breast): 1.28 µM
- TGI (MCF7 breast): 2.72 µM
- GI50 (OVCAR-5 ovarian): 1.75 µM
- TGI (OVCAR-5 ovarian): 3.19 µM
- GI50 (HS 578T breast): 2.51 µM
- TGI (HS 578T breast): 7.12 µM
- GI50 (SK-MEL-28 melanoma): 1.68 µM
- TGI (SK-MEL-28 melanoma): 3.11 µM
- GI50 (SN12C renal): 2.13 µM
- TGI (SN12C renal): 4.97 µM
- GI50 (A549 NSCLC): 3.46 µM
- TGI (A549 NSCLC): > 100 µM
- GI50 (SF-268 CNS): 4.16 µM
- TGI (SF-268 CNS): 45.3 µM
- GI50 (SNB-75 CNS): 3.97 µM
- TGI (SNB-75 CNS): 25.4 µM
- GI50 (A498 renal): 13.2 µM
- TGI (A498 renal): 53.3 µM
- GI50 (SR leukemia): 2.75 µM
- TGI (SR leukemia): > 100 µM
- GI50 (MOLT-4 leukemia): 3.57 µM
- TGI (MOLT-4 leukemia): > 100 µM
- GI50 (SK-MEL-5 melanoma): 2.01 µM
- TGI (SK-MEL-5 melanoma): 4.79 µM
- GI50 (HL-60(TB) leukemia): 2.67 µM
- TGI (HL-60(TB) leukemia): > 100 µM
- GI50 (HCT-15 colon): 1.66 µM
- TGI (HCT-15 colon): 3.53 µM
- GI50 (HCC-2998 colon): 1.79 µM
- TGI (HCC-2998 colon): 3.26 µM
- GI50 (PC-3 prostate): 2.74 µM
- TGI (PC-3 prostate): 7.14 µM
- GI50 (TK-10 renal): 1.66 µM
- TGI (TK-10 renal): 3.11 µM
- GI50 (OVCAR-4 ovarian): 4.53 µM
- TGI (OVCAR-4 ovarian): > 100 µM
- GI50 (LOX IMVI melanoma): 1.52 µM
- TGI (LOX IMVI melanoma): 2.92 µM
- GI50 (K-562 leukemia): 2.53 µM
- TGI (K-562 leukemia): > 100 µM
- GI50 (EKVX NSCLC): 2.15 µM
- TGI (EKVX NSCLC): 4.89 µM
- GI50 (KM12 colon): 1.94 µM
- TGI (KM12 colon): 4.65 µM
- GI50 (HOP-92 NSCLC): 1.79 µM
- TGI (HOP-92 NSCLC): 4.62 µM
- GI50 (RXF 393 renal): 1.5 µM
- TGI (RXF 393 renal): 2.84 µM
- GI50 (NCI-H460 lung): 2.2 µM
- TGI (NCI-H460 lung): 4.35 µM
- GI50 (SK-OV-3 ovarian): 24.5 µM
- TGI (SK-OV-3 ovarian): > 100 µM
- GI50 (ACHN renal): 1.74 µM
- TGI (ACHN renal): 3.11 µM
- GI50 (SF-295 CNS): 6.89 µM
- TGI (SF-295 CNS): 21.4 µM
- GI50 (MDA-MB-468 breast): 1.31 µM
- TGI (MDA-MB-468 breast): 2.91 µM
- GI50 (SNB-19 CNS): 3.14 µM
- TGI (SNB-19 CNS): 12.1 µM
